Counter-ions that a name gives are not always drawn.
Target: T1, FAAH (Rattus norvegicus, UniProt P97612)
T1 construct: Frozen brains (without cerebellum) from Wistar rats were used; from tissue; host or cells: Wistar rat brain (without cerebellum), washed membrane pellets
T1 sequence (P97612 1-579): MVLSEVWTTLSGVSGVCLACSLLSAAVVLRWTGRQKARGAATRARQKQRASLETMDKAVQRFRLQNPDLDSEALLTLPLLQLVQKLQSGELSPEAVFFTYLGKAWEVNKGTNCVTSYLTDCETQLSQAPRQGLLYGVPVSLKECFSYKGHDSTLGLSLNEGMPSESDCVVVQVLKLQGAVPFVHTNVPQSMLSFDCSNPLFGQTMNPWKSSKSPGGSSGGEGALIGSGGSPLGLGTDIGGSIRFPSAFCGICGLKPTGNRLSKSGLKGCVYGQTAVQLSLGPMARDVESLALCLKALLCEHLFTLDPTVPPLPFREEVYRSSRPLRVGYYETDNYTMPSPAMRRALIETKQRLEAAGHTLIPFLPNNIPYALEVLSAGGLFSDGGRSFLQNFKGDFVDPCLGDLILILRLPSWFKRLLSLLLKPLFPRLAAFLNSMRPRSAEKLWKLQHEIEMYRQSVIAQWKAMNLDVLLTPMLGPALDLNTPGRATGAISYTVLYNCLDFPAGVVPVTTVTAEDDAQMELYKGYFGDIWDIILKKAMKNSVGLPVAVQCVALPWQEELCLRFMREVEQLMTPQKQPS
Assay: In vitro FAAH activity in rat brain membranes, 3H-AEA substrate, % of control
Format: biochemical, Wistar rats
Conditions: low value = strong inhibitor; for In Vitro FAAH activity, 10 uM: 10 uM test compound; for In Vitro FAAH activity, 100 nM: 100 nM test compound
Procedure: 3. Biological Efficacy of Compounds of the Invention The in vitro test was performed according to the protocol described below. The controls for both in vitro and in vivo were the reaction mix minus the test compounds. Therefore, a low value in Table 1 below for the test compounds indicates a strong inhibitor.
The in vitro pharmaceutical FAAH activity was determined according to the following method:
Frozen brains (without cerebellum) from Wistar rats were used, and each brain was homogenized in 15 ml 1 mM MgCL2, […] HEPES pH 7.0 with Potter Elvejhem (8 strokes at 500 rpm). Homogenates were centrifuged for 20 min at 36000 g at 4° C. (Beckman, 70Ti rotor). Pellets were resuspended in 15 ml of the same buffer and centrifuged under the same conditions. Pellets were resuspended in 15 ml of the same buffer and incubated for 15 min at 37° C. after which they were centrifuged for 20 min at 36000 g at 4° C. Each pellet was then resuspended in 15 ml 3 mM MgCl2, 1 mM EDTA, 50 mM Tris pH 7.4 and protein determined with BioRad Protein Assay (BioRad) using a standard curve of BSA (50-250 μg/ml). The membrane suspensions were aliquoted and stored at −80° C.
The FAAH activity was determined using AEA (labelled with 3H in the ethanolamine part of the molecule) as substrate and measuring the 3H-ethanolamine formed. Reaction mix (total volume of 200 up contained: 2 μM AEA (2 μM AEA+5 nM 3H-AEA), 0.1% fatty acid free BSA, 5 μg protein, in 1 mM EDTA, 10 mM Tris pH 7.6 and 10 μM or 0.1 μM compounds. Stock solutions of the compounds to test (10 mM) were prepared in 100% DMSO and the DMSO concentration in the assay was 0.1%. After a 15 min preincubation period at 37° C., reaction was started by the addition of the substrate solution ([…]). Reaction was carried out for 10 min before termination by the addition of 400 μl activated charcoal suspension (8 g charcoal in 32 ml 0.5 M HCl in continuous agitation). After a 30 min incubation period at room temperature with agitation, charcoal was sedimented by centrifugation in microfuge (10 min at 13000 rpm). 200 μl of the supernatant were added to 800 μl Optiphase Supermix scintillation cocktail previously distributed in 24-well plates. Counts per minute (cpm) were determined in Microbeta TriLux scintillation counter (10 min counting or until s=2).
In each assay blanks (no protein, usually below 200 cpm) and controls (no compound) were present. The results are reported in Table 1 as % of control after blank subtraction.

Row | Compound | In Vitro FAAH activity, 10 uM | In Vitro FAAH activity, 100 nM
1 | O=C(N1CCOCC1)n1ccnc1 [Compound 1, (1H-imidazol-1-yl)(morpholino)methanone] | 62.6 % of control | –
2 | CN(C(=O)n1ccnc1)c1ccccc1 [Compound 2, N-methyl-N-phenyl-1H-imidazole-1-carboxamide] | 11.7 % of control | –
3 | O=C(N1CCOCC1)n1cnc(-c2ccccc2)c1 [Compound 3, morpholino(4-phenyl-1H-imidazol-1-yl)methanone] | 4.8 % of control | –
4 | O=C(Nc1ccccc1)n1ccc(-c2ccccc2)n1 [Compound 5, N,3-diphenyl-1H-pyrazole-1-carboxamide] | 91.3 % of control | –
5 | COc1ccc(NC(=O)n2ccc(-c3ccccc3)n2)cc1 [Compound 6, N-(4-methoxyphenyl)-3-phenyl-1H-pyrazole-1-carboxamide] | 91.1 % of control | –
6 | CN(C(=O)n1cncn1)c1ccccc1 [Compound 7, N-methyl-N-phenyl-1H-1,2,4-triazole-1-carboxamide] | 0 % of control | 17 % of control
7 | CN(C(=O)n1cccn1)c1ccccc1 [Compound 8, N-methyl-N-phenyl-1H-pyrazole-1-carboxamide] | 13.2 % of control | –
8 | O=C(Nc1ccccc1)n1cccn1 [Compound 9, N-phenyl-1H-pyrazole-1-carboxamide] | 78.6 % of control | –
9 | O=C(Nc1ccc(Oc2ccccc2)cc1)n1ccc(-c2ccccc2)n1 [Compound 10, N-(4-phenoxyphenyl)-3-phenyl-1H-pyrazole-1-carboxamide] | 55 % of control | –
10 | O=C(Nc1ccc(OCc2ccccc2)cc1)n1ccc(-c2ccccc2)n1 [Compound 11, N-(4-(benzyloxy)phenyl)-3-phenyl-1H-pyrazole-1-carboxamide] | 82.6 % of control | –
11 | CN(C(=O)n1ccc(-c2ccccc2)n1)c1ccccc1 [Compound 12, N-methyl-N,3-diphenyl-1H-pyrazole-1-carboxamide] | 86 % of control | –
12 | O=C(N1CCOCC1)n1ccc(-c2ccccc2)n1 [Compound 13, morpholino(3-phenyl-1H-pyrazol-1-yl)methanone] | 89.7 % of control | –
13 | O=C(Nc1ccc(-c2ccccc2)cc1)n1ccc(-c2ccccc2)n1 [Compound 15, N-(biphenyl-4-yl)-3-phenyl-1H-pyrazole-1-carboxamide] | 66.9 % of control | 103.8 % of control
14 | COc1ccc(N(C)C(=O)n2cnc(-c3ccccc3)c2)cc1 [Compound 17, N-(4-methoxyphenyl)-N-methyl-4-phenyl-1H-imidazole-1-carboxamide] | 65 % of control | –
15 | CN(C(=O)n1cnc2ccccc21)c1ccccc1 [Compound 18, N-methyl-N-phenyl-1H-benzo[d]imidazole-1-carboxamide] | 67.9 % of control | –
16 | O=C(Nc1ccccc1)n1ccc(-c2ccc(-c3ccccc3)cc2)n1 [Compound 20, 3-(biphenyl-4-yl)-N-phenyl-1H-pyrazole-1-carboxamide] | 97.3 % of control | –

Next, values leading:

Row | In Vitro FAAH activity, 10 uM | In Vitro FAAH activity, 100 nM | Compound
17 | 79.1 % of control | – | O=C(N1CCOCC1)n1ccc(-c2cccnc2)n1 [Compound 21, morpholino(3-(pyridin-3-yl)-1H-pyrazol-1-yl)methanone hydrochloride]
18 | 95.8 % of control | – | COc1cccc(NC(=O)n2ccc(-c3ccc(-c4ccccc4)cc3)n2)c1 [Compound 22, 3-(biphenyl-4-yl)-N-(3-methoxyphenyl)-1H-pyrazole-1-carboxamide]
19 | 93 % of control | – | COc1ccc(NC(=O)n2ccc(-c3ccc(-c4ccccc4)cc3)n2)cc1 [Compound 23, 3-(biphenyl-4-yl)-N-(4-methoxyphenyl)-1H-pyrazole-1-carboxamide]
20 | 22.9 % of control | – | CN(C(=O)n1ccc(-c2cccnc2)n1)c1ccccc1 [Compound 24, N-methyl-N-phenyl-3-(pyridin-3-yl)-1H-pyrazole-1-carboxamide]
21 | 99 % of control | – | CN(C(=O)n1ccc(-c2ccc(-c3ccccc3)cc2)n1)c1ccccc1 [Compound 25, 3-(biphenyl-4-yl)-N-methyl-N-phenyl-1H-pyrazole-1-carboxamide]
22 | 92.6 % of control | – | CN(C(=O)n1ccnc1-c1ccccc1)c1ccccc1 [Compound 26, N-methyl-N,2-diphenyl-1H-imidazole-1-carboxamide]
23 | 0.2 % of control | 71.4 % of control | CN(C(=O)n1cnc(-c2ccc(Cl)cc2)c1)c1ccccc1 [Compound 27, 4-(4-chlorophenyl)-N-methyl-N-phenyl-1H-imidazole-1-carboxamide]
24 | 0.7 % of control | 85.1 % of control | COc1ccc(-c2cn(C(=O)N(C)c3ccccc3)cn2)cc1 [Compound 28, 4-(4-methoxyphenyl)-N-methyl-N-phenyl-1H-imidazole-1-carboxamide]
25 | 0.1 % of control | 72.5 % of control | CN(C(=O)n1cnc(-c2ccccc2F)c1)c1ccccc1 [Compound 30, 4-(2-fluorophenyl)-N-methyl-N-phenyl-1H-imidazole-1-carboxamide]
26 | 0 % of control | 69 % of control | COc1cccc(-c2cn(C(=O)N(C)c3ccccc3)cn2)c1 [Compound 31, 4-(3-methoxyphenyl)-N-methyl-N-phenyl-1H-imidazole-1-carboxamide]
27 | 103.1 % of control | – | CN(C(=O)n1cnc(-c2ccc(-c3ccccc3)cc2)c1)c1ccccc1 [Compound 35, 4-(biphenyl-4-yl)-N-methyl-N-phenyl-1H-imidazole-1-carboxamide]
28 | 5 % of control | – | COc1ccc(-c2cn(C(=O)N(C)c3ccc(F)cc3)cn2)cc1 [Compound 36, N-(4-fluorophenyl)-4-(4-methoxyphenyl)-N-methyl-1H-imidazole-1-carboxamide]
29 | 51.7 % of control | – | O=C(N1CCCc2ccccc21)n1cnc(-c2ccccc2)c1 [Compound 37, (3,4-dihydroquinolin-1(2H)-yl)(4-phenyl-1H-imidazol-1-yl)methanone]
30 | 0 % of control | 83.9 % of control | CN(C(=O)n1cnc(-c2ccc(O)cc2)c1)c1ccccc1 [Compound 38, 4-(4-hydroxyphenyl)-N-methyl-N-phenyl-1H-imidazole-1-carboxamide]
31 | 0.1 % of control | 88 % of control | CN(C(=O)n1cnc(-c2ccc(Cl)cc2)c1)c1ccc(F)cc1 [Compound 43, 4-(4-chlorophenyl)-N-(4-fluorophenyl)-N-methyl-1H-imidazole-1-carboxamide]
32 | – | 97.8 % of control | O=C(N1CCCc2ccccc21)n1cnc(-c2ccc(F)cc2)c1 [Compound 44, (3,4-dihydroquinolin-1(2H)-yl)(4-(4-fluorophenyl)-1H-imidazol-1-yl)methanone]
33 | – | 83 % of control | CN(C(=O)n1cnc(-c2ccccc2F)c1)c1ccc(F)cc1 [Compound 45, 4-(2-fluorophenyl)-N-(4-fluorophenyl)-N-methyl-1H-imidazole-1-carboxamide]

Source: US9353082B2, “Pharmaceutical compounds” (BIAL—PORTELA & CA, S.A., priority 2008, dated 2016)
